The target in the first test is T1, NTCP (Homo sapiens, UniProt Q14973).
T1 sequence (Q14973 1-349): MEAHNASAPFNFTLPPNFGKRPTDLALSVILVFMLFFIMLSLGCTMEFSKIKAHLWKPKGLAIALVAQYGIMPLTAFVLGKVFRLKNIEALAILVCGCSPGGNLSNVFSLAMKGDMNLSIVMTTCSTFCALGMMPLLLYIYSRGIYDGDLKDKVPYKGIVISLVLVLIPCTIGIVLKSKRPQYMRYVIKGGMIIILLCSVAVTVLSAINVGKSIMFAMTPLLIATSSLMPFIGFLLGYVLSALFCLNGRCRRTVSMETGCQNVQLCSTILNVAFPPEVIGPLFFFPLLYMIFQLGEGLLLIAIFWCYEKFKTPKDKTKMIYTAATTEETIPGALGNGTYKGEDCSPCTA
Description: [3H]-TCA uptake assay (NTCP inhibition). Particulars: IC50, given as a range, marked * (asterisk not explained). In kind it is cell-based. As to the method:
[^3H]-TCA uptake assay. PTH and HepG2-NTCP cells were cultured in PMM for 24 hours to induce NTCP expression. After treated by DMSO or test compounds for 2 hours, the cells were then incubated with 1 μM [^3H]-taurocholate acid dissolved in Na^+ Ringer's buffer (the concentration of Na was 145 mM) for 15 minutes at 37° C. Subsequently, the cells were washed once in phosphate-buffered saline (PBS) and lysed in 50 μL 1% TritonX-100 in H2O for 5 minutes at room temperature. The lysate were totally transferred into a liquid scintillation 96 well plate and mixed with 200 μL liquid scintillation cocktail (Ultima Gold XR, PerkinElmer). Liquid scintillation counting was performed on a PerkinElmer 1450 LSC liquid scintillation counter.
Compound `CCC1NC(=O)C(C2OC(Oc3ccc(C)cc3)CC2C)N(C)C(=O)C(C(C)C)N(C)C(=O)C(CC(C)C)N(C)C(=O)C(CC(C)C)N(C)C(=O)C(C)NC(=O)C(C)NC(=O)C(CC(C)C)N(C)C(=O)C(C(C)C)NC(=O)C(CC(C)C)N(C)C(=O)CN(C)C1=O` (stereo not drawn) [Compound 2A-o] returned an IC50 of 1000 to 100000 nM.
Still for that read-out and setting: then `CCC1NC(=O)C(C2OC(Oc3ccc(N4CCOCC4)cc3)CC2C)N(C)C(=O)C(C(C)C)N(C)C(=O)C(CC(C)C)N(C)C(=O)C(CC(C)C)N(C)C(=O)C(C)NC(=O)C(C)NC(=O)C(CC(C)C)N(C)C(=O)C(C(C)C)NC(=O)C(CC(C)C)N(C)C(=O)CN(C)C1=O` (stereo not drawn) [Compound 3A-o], with 1000 to 100000 nM; and `CCC1NC(=O)C(C2OC(Oc3ccc(NC(C)=O)cc3)CC2C)N(C)C(=O)C(C(C)C)N(C)C(=O)C(CC(C)C)N(C)C(=O)C(CC(C)C)N(C)C(=O)C(C)NC(=O)C(C)NC(=O)C(CC(C)C)N(C)C(=O)C(C(C)C)NC(=O)C(CC(C)C)N(C)C(=O)CN(C)C1=O` (stereo not drawn) [Compound 4A-o], with 1000 to 100000 nM.
Compound `CCC1NC(=O)C(C2OC(Oc3ccc(OS(C)(=O)=O)cc3)CC2C)N(C)C(=O)C(C(C)C)N(C)C(=O)C(CC(C)C)N(C)C(=O)C(CC(C)C)N(C)C(=O)C(C)NC(=O)C(C)NC(=O)C(CC(C)C)N(C)C(=O)C(C(C)C)NC(=O)C(CC(C)C)N(C)C(=O)CN(C)C1=O` (stereo not drawn) [Compound 5A-o] yielded a 50% inhibitory concentration (IC50) of 1000 to 100000 nM.
`CCC1NC(=O)C(C2OC(Oc3ccc(N4CCN(C)CC4)cc3)CC2C)N(C)C(=O)C(C(C)C)N(C)C(=O)C(CC(C)C)N(C)C(=O)C(CC(C)C)N(C)C(=O)C(C)NC(=O)C(C)NC(=O)C(CC(C)C)N(C)C(=O)C(C(C)C)NC(=O)C(CC(C)C)N(C)C(=O)CN(C)C1=O` (stereo not drawn) [Compound 6A-o] came in with a concentration for half-maximal inhibition (IC50) of 1000 to 100000 nM.
Take `CCC1NC(=O)C(C2OC(Oc3ccc(CN4CCN(C)CC4)cc3)CC2C)N(C)C(=O)C(C(C)C)N(C)C(=O)C(CC(C)C)N(C)C(=O)C(CC(C)C)N(C)C(=O)C(C)NC(=O)C(C)NC(=O)C(CC(C)C)N(C)C(=O)C(C(C)C)NC(=O)C(CC(C)C)N(C)C(=O)CN(C)C1=O` (stereo not drawn) [Compound 7A-o]: the 50% inhibitory concentration (IC50) was in the range of 1000 to 100000 nM.
On the same count and under the same terms, the value for `CCCCc1ccc(OC2CC(C)C(C3C(=O)NC(CC)C(=O)N(C)CC(=O)N(C)C(CC(C)C)C(=O)NC(C(C)C)C(=O)N(C)C(CC(C)C)C(=O)NC(C)C(=O)NC(C)C(=O)N(C)C(CC(C)C)C(=O)N(C)C(CC(C)C)C(=O)N(C)C(C(C)C)C(=O)N3C)O2)cc1` (stereo not drawn) [Compound 8A-o] was 1000 to 100000 nM.
Same read-out and setting: then `CCC1NC(=O)C(C2OC(Oc3ccc(C4CCCCC4)cc3)CC2C)N(C)C(=O)C(C(C)C)N(C)C(=O)C(CC(C)C)N(C)C(=O)C(CC(C)C)N(C)C(=O)C(C)NC(=O)C(C)NC(=O)C(CC(C)C)N(C)C(=O)C(C(C)C)NC(=O)C(CC(C)C)N(C)C(=O)CN(C)C1=O` (stereo not drawn) [Compound 9A-o], with 1000 to 100000 nM; and `CCC1NC(=O)C(C2OC(Oc3ccc(SCCCS(=O)(=O)O)cc3)CC2C)N(C)C(=O)C(C(C)C)N(C)C(=O)C(CC(C)C)N(C)C(=O)C(CC(C)C)N(C)C(=O)C(C)NC(=O)C(C)NC(=O)C(CC(C)C)N(C)C(=O)C(C(C)C)NC(=O)C(CC(C)C)N(C)C(=O)CN(C)C1=O` (stereo not drawn) [Compound 10A-o], with 1000 to 100000 nM.

Still in this test, the particulars now being: IC50, given as a range; assay not given.
The compound `CCC1NC(=O)C(C2OC(Sc3ccc(NC(C)=O)cc3)CC2C)N(C)C(=O)C(C(C)C)N(C)C(=O)C(CC(C)C)N(C)C(=O)C(CC(C)C)N(C)C(=O)C(C)NC(=O)C(C)NC(=O)C(CC(C)C)N(C)C(=O)C(C(C)C)NC(=O)C(CC(C)C)N(C)C(=O)CN(C)C1=O` [Compound 4A, [2-((2R,3R)-5-(4-acetamidophenylthio)-3-methyltetrahydrofuran-2-yl)-2-(methylamino)acetic acid]^1-cyclosporin A] showed an IC50 of 1000 to 10000 nM.
Regarding `CCC1NC(=O)C(C2OC(Sc3ccc(OS(C)(=O)=O)cc3)CC2C)N(C)C(=O)C(C(C)C)N(C)C(=O)C(CC(C)C)N(C)C(=O)C(CC(C)C)N(C)C(=O)C(C)NC(=O)C(C)NC(=O)C(CC(C)C)N(C)C(=O)C(C(C)C)NC(=O)C(CC(C)C)N(C)C(=O)CN(C)C1=O` [Compound 5A, [2-((2R,3R)-3-methyl-5-(4-(methylsulfonyloxy)phenylthio)tetrahydrofuran-2-yl)-2-(methylamino)acetic acid]^1-cyclosporin A], the IC50 lay within 1000 to 10000 nM.
For the compound `CCC1NC(=O)C(C2OC(Sc3ccc(CN4CCN(C)CC4)cc3)CC2C)N(C)C(=O)C(C(C)C)N(C)C(=O)C(CC(C)C)N(C)C(=O)C(CC(C)C)N(C)C(=O)C(C)NC(=O)C(C)NC(=O)C(CC(C)C)N(C)C(=O)C(C(C)C)NC(=O)C(CC(C)C)N(C)C(=O)CN(C)C1=O` [Compound 7A, [2-((2R,3R)-3-methyl-5-(4-((4-methylpiperazin-1-yl)methyl)phenylthio)tetrahydrofuran-2-yl)-2-(methylamino)acetic acid]^1-cyclosporin A], the half-maximal inhibitory concentration (IC50) is 1000 to 10000 nM.

The same test, now with this note: given as a range, marked * (asterisk not explained).
`CCC1NC(=O)C(C2OC(Oc3cc(OCCOC)cc(OCc4ccccc4)c3)CC2C)N(C)C(=O)C(C(C)C)N(C)C(=O)C(CC(C)C)N(C)C(=O)C(CC(C)C)N(C)C(=O)C(C)NC(=O)C(C)NC(=O)C(CC(C)C)N(C)C(=O)C(C(C)C)NC(=O)C(CC(C)C)N(C)C(=O)CN(C)C1=O` (stereo not drawn) [Compound 11-0] had an IC50 of 1000 to 100000 nM.
For `CCC1NC(=O)C(C2OC(Sc3cc(OCCOC)cc(OCc4ccccc4)c3)CC2C)N(C)C(=O)C(C(C)C)N(C)C(=O)C(CC(C)C)N(C)C(=O)C(CC(C)C)N(C)C(=O)C(C)NC(=O)C(C)NC(=O)C(CC(C)C)N(C)C(=O)C(C(C)C)NC(=O)C(CC(C)C)N(C)C(=O)CN(C)C1=O` (stereo not drawn) [Compound 11], the 50% inhibitory concentration (IC50) lay in the range of 1000 to 100000 nM.

The same test, now with this note: given as a range; assay not given.
Compound `CCC1NC(=O)C(C2OC(Sc3ccc(N4CCOCC4)cc3)CC2C)N(C)C(=O)C(C(C)C)N(C)C(=O)C(CC(C)C)N(C)C(=O)C(CC(C)C)N(C)C(=O)C(C)NC(=O)C(C)NC(=O)C(CC(C)C)N(C)C(=O)C(C(C)C)NC(=O)C(CC(C)C)N(C)C(=O)CN(C)C1=O` [Compound 3A, [2-((2R,3R)-3-methyl-5-(4-morpholinophenylthio)tetrahydrofuran-2-yl)-2-(methylamino)acetic acid]^1-cyclosporin A] gave an IC50 of 1 to 1000 nM.
Take `CCC1NC(=O)C(C2OC(Sc3ccc(N4CCN(C)CC4)cc3)CC2C)N(C)C(=O)C(C(C)C)N(C)C(=O)C(CC(C)C)N(C)C(=O)C(CC(C)C)N(C)C(=O)C(C)NC(=O)C(C)NC(=O)C(CC(C)C)N(C)C(=O)C(C(C)C)NC(=O)C(CC(C)C)N(C)C(=O)CN(C)C1=O` [Compound 6A, [2-((2R,3R)-3-methyl-5-(4-(4-methylpiperazin-1-yl)phenylthio)tetrahydrofuran-2-yl)-2-(methylamino)acetic acid]^1-cyclosporin A]: the IC50 was 1 to 1000 nM.
The compound `CCCCc1ccc(SC2CC(C)C(C3C(=O)NC(CC)C(=O)N(C)CC(=O)N(C)C(CC(C)C)C(=O)NC(C(C)C)C(=O)N(C)C(CC(C)C)C(=O)NC(C)C(=O)NC(C)C(=O)N(C)C(CC(C)C)C(=O)N(C)C(CC(C)C)C(=O)N(C)C(C(C)C)C(=O)N3C)O2)cc1` [Compound 8A, [2-((2R,3R)-5-(4-butylphenylthio)-3-methyltetrahydrofuran-2-yl)-2-(methylamino)acetic acid]^1-cyclosporin A] returned an IC50 of 1 to 1000 nM.
As to `CCC1NC(=O)C(C2OC(Sc3ccc(C4CCCCC4)cc3)CC2C)N(C)C(=O)C(C(C)C)N(C)C(=O)C(CC(C)C)N(C)C(=O)C(CC(C)C)N(C)C(=O)C(C)NC(=O)C(C)NC(=O)C(CC(C)C)N(C)C(=O)C(C(C)C)NC(=O)C(CC(C)C)N(C)C(=O)CN(C)C1=O` [Compound 9A, [2-((2R,3R)-5-(4-cyclohexylphenylthio)-3-methyltetrahydrofuran-2-yl)-2-(methylamino)acetic acid]^1-cyclosporin A], the IC50 was 1000 to 1e+06 nM.
In turn, `CCC1NC(=O)C(C2OC(Sc3ccc(SCCCS(=O)(=O)O)cc3)CC2C)N(C)C(=O)C(C(C)C)N(C)C(=O)C(CC(C)C)N(C)C(=O)C(CC(C)C)N(C)C(=O)C(C)NC(=O)C(C)NC(=O)C(CC(C)C)N(C)C(=O)C(C(C)C)NC(=O)C(CC(C)C)N(C)C(=O)CN(C)C1=O` [Compound 10A, [2-((2R,3R)-3-methyl-5-(4-(3-sulfopropylthio)phenylthio)tetrahydrofuran-2-yl)-2-(methylamino)acetic acid]^1-cyclosporin A] gave a concentration for half-maximal inhibition (IC50) of 1000 to 1e+06 nM.
Compound `CCC1NC(=O)C(C2OC(Sc3cccc(OCc4ccccc4)c3)CC2C)N(C)C(=O)C(C(C)C)N(C)C(=O)C(CC(C)C)N(C)C(=O)C(CC(C)C)N(C)C(=O)C(C)NC(=O)C(C)NC(=O)C(CC(C)C)N(C)C(=O)C(C(C)C)NC(=O)C(CC(C)C)N(C)C(=O)CN(C)C1=O` [Compound 12A, [2-((2R,3R)-5-(3-(benzyloxy)phenylthio)-3-methyltetrahydrofuran-2-yl)-2-(methylamino)acetic acid]^1-cyclosporin A] registered an IC50 of 1 to 1000 nM.
Regarding `CCC1NC(=O)C(C2OC(Sc3cccc(OCc4ccc(CN(C)C)cc4)c3)CC2C)N(C)C(=O)C(C(C)C)N(C)C(=O)C(CC(C)C)N(C)C(=O)C(CC(C)C)N(C)C(=O)C(C)NC(=O)C(C)NC(=O)C(CC(C)C)N(C)C(=O)C(C(C)C)NC(=O)C(CC(C)C)N(C)C(=O)CN(C)C1=O` [Compound 13A, [2-((2R,3R)-5-(3-(4-((dimethylamino)methyl)benzyloxy)phenylthio)-3-methyltetrahydrofuran-2-yl)-2-(methylamino)acetic acid]^1-cyclosporin A], the half-inhibitory concentration (IC50) lay in the range of 1 to 1000 nM.

The term IC50 denotes the midpoint of a concentration-inhibition curve. Read a high IC50 as lower potency.

The values above are taken from patent US10961231B2, “NTCP inhibitors” (National Institute of Biological Sciences, Beijing, priority 2018, dated 2021).
